Source: patent publication US9617263B2, “Phenyl-triazolo-pyridine compounds” (Eli Lilly and Company, priority 2014, dated 2017)

Biological target: T1, PPARγ (Homo sapiens, UniProt P37231)
T1 construct: expressed in transfected cells; host or cells: CV1 (African green monkey kidney)
T1 sequence (P37231 1-505): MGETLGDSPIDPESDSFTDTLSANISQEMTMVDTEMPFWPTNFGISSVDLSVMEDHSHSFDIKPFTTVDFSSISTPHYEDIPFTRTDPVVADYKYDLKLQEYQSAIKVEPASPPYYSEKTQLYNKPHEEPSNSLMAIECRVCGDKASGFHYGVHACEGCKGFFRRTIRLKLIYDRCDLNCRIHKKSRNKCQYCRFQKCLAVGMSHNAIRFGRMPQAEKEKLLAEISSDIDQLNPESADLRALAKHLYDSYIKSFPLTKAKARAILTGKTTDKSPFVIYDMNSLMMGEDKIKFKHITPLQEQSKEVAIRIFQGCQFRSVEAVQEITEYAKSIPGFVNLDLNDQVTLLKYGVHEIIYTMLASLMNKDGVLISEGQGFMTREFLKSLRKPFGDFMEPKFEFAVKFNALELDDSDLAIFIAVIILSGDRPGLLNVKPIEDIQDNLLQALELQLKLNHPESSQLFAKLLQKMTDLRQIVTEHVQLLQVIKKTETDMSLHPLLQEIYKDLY
T1 sequence (P19793 1-462 partner): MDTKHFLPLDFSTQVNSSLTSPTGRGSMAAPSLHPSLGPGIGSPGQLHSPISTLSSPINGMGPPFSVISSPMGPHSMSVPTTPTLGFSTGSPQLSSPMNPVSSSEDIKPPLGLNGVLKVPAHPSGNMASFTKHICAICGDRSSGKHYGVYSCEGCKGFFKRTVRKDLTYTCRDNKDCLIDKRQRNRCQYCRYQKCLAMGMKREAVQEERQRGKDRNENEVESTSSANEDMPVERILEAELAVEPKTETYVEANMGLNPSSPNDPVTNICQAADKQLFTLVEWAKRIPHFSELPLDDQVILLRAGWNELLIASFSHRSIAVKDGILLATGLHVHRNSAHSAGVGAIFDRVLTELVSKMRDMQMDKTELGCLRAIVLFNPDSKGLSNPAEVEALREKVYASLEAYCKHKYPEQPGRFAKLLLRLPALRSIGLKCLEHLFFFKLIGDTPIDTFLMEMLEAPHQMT
Test: PPARγ reporter (CTF) functional assay in CV1 cells
Format: cell-based
Settings: examined up to 10 M; versus 10 μM PPAR agonist reference compound
Description: Because GPR40 is known to be activated by ligands to PPARγ, exemplified compounds are examined in Gal4 PPARα, Gal4 PPARδ, and PPARγ reporter assays to determine the selectivity of exemplified compounds for PPAR receptors. CV1 cells, which are derived from the renal tissue of an African green monkey, are transfected with various receptor and reporter plasmids using Fugene. […] After 24 hours incubation with compounds, cells are lysed and luciferase activity is determined as a measure of receptor activation by luminescence. […] The maximum percent stimulation is determined versus maximum stimulation obtained with 10 μM of an appropriate PPAR agonist reference compound, 2-methyl-2-(4-{2-methyl-3-[2-(phenylcarbonyl)-4-(trifluoromethoxy)phenoxy]propoxy}phenoxy)propanoic acid. […] Efficacy was negative for PPARα, PPARδ, and PPARγ is detected with the compound of Example 1 when examined up to […] in the specific PPAR co-transfection (CTF) functional assays described above. […]

## CC#C[C@@H](CC(=O)O)c1ccc(OCc2cc(-c3ccccc3C)cn3ncnc23)cc1 [Example 1, (S)-3-[4-(6-o-Tolyl-[1,2,4]triazolo[1,5-a]pyridin-8-ylmethoxy)-phenyl]-hex-4-ynoic acid]
  Efficacy for PPARγ: negative (Efficacy of <20% is considered negative)
